This note sets out measurements from patent US12187746B2, “C26-linked rapamycin analogs as mTOR inhibitors” (Revolution Medicines, Inc., priority 2018, dated 2025).

In one assay the test system is P-4E-BP1 (T37/46). Put plainly: Cell based AlphaLISA assay, inhibition of P-4E-BP1 (T37/46) in MDA-MB-468 cells. As to conditions: Homo sapiens, 4 h, 0.017-1,000 nM, two to four hours at 37° C., AlphaLisa SureFire Ultra, read-out: pIC50 for Inhibition of mTORC1 and mTORC2 Substrate Phosphorylation, p-4E-BP1-(T37/46) (converted). On the procedure:
(§1) Cell Based AlphaLISA Assays For Determining IC50 For Inhibition of P-Akt (S473), P-4E-BP1 (T37/46), and P-P70S6K (T389) in MDA-MB-468 Cells
(§2) mTOR Kinase Cellular Assay
(§3) To measure functional activity of mTORC1 and mTORC2 in cells the phosphorylation of 4EBP1 (Thr37/46) and P70S6K (Thr389), and AKT1/2/3 (Ser473) was monitored using AlphaLisa SureFire Ultra Kits (Perkin Elmer). […] Incubations are terminated by removal of the assay buffer and addition of lysis buffer provided with the assay kit. Samples are processed according to the manufacturer's instructions. The Alpha signal from the respective phosphoproteins is measured in duplicate using a microplate reader (Envision, Perkin-Elmer or Spectramax M5, Molecular Devices). Inhibitor concentration response curves are analyzed using normalized IC50 regression curve fitting with control based normalization.
A general note: Alpha assays give light when donor and acceptor beads are brought close together.

In a further assay the test system is P-Akt (S473). Put plainly: Cell based AlphaLISA assay, inhibition of P-Akt (S473) in MDA-MB-468 cells. The settings on record: Homo sapiens, 4 h, 0.017-1,000 nM, two to four hours at 37° C., AlphaLisa SureFire Ultra, read-out: pIC50 for Inhibition of mTORC1 and mTORC2 Substrate Phosphorylation, p-AKT1/2/3-(S473) (converted). On the procedure: as §1, §2, §3
For a further assay, the system named is P-P70S6K (T389). Put plainly: Cell based AlphaLISA assay, inhibition of P-P70S6K (T389) in MDA-MB-468 cells. The settings on record: Homo sapiens, 4 h, 0.017-1,000 nM, two to four hours at 37° C., AlphaLisa SureFire Ultra, read-out: pIC50 for Inhibition of mTORC1 and mTORC2 Substrate Phosphorylation, p-P70S6K-(T389) (converted). On the procedure:
as §1, §2, §3

Turning to `CO[C@H]1C[C@@H]2CC[C@@H](C)[C@@](O)(O2)C(=O)C(=O)N2CCCC[C@H]2C(=O)O[C@H]([C@H](C)C[C@@H]2CC[C@@H](O)[C@H](OC)C2)C[C@@H](O)[C@H](C)/C=C(\C)[C@@H](O)[C@@H](OC)C(=NOCC(=O)NCc2cnc(N3CCN(C(=O)CCOCCN4CCN(c5ncc(C(=O)N6CCc7cc(Cn8nc(-c9ccc%10oc(N)nc%10c9)c9c(N)ncnc98)ccc7C6)cn5)CC4)CC3)nc2)[C@H](C)C[C@H](C)/C=C/C=C/C=C/1C` [Example 30], the IC50 in the assay with P-4E-BP1 (T37/46) is 3.16 to 31.6 nM; in the assay with P-Akt (S473), > 1000 nM; in the assay with P-P70S6K (T389) it was < 1 nM.

As to `CO[C@H]1C[C@@H]2CC[C@@H](C)[C@@](O)(O2)C(=O)C(=O)N2CCCC[C@H]2C(=O)O[C@H]([C@H](C)C[C@@H]2CC[C@@H](O)[C@H](OC)C2)C[C@@H](O)[C@H](C)/C=C(\C)[C@@H](O)[C@@H](OC)C(=NOCC(=O)NCc2cnc(N3CCN(C(=O)CCOCCN4CCN(c5ncc(C(=O)N6CCc7cc(Cn8nc(-c9cnc%10[nH]ccc%10c9)c9c(N)ncnc98)ccc7C6)cn5)CC4)CC3)nc2)[C@H](C)C[C@H](C)/C=C/C=C/C=C/1C` [Example 31], the IC50 is 3.16 to 31.6 nM in the assay on P-4E-BP1 (T37/46), > 1000 nM in the assay on P-Akt (S473) and < 1 nM with P-P70S6K (T389).

As for `CO[C@H]1C[C@@H]2CC[C@@H](C)[C@@](O)(O2)C(=O)C(=O)N2CCCC[C@H]2C(=O)O[C@H]([C@H](C)C[C@@H]2CC[C@@H](O)[C@H](OC)C2)C[C@@H](O)[C@H](C)/C=C(\C)[C@@H](O)[C@@H](OC)C(=NOCC(=O)NCc2cnc(N3CCN(C(=O)CCOCCN4CCN(c5ncc(C(=O)N6CCC(n7nc(-c8ccc9oc(N)nc9c8)c8c(N)ncnc87)CC6)cn5)CC4)CC3)nc2)[C@H](C)C[C@H](C)/C=C/C=C/C=C/1C` [Example 32], the values for the IC50 with P-4E-BP1 (T37/46), in the assay with P-Akt (S473) and in the assay with P-P70S6K (T389) were 3.16 to 31.6 nM, 3.16 to 31.6 nM and < 1 nM, respectively.

For `COc1ccc(-c2ccc3ncc4c(c3c2)n(-c2ccc(N3CCN(c5ncc6c(n5)CCN(C(=O)c5cnc(N7CCN(CCOCCC(=O)N8CCN(c9ncc(CNC(=O)CON=C%10[C@H](C)C[C@H](C)/C=C/C=C/C=C(\C)[C@@H](OC)C[C@@H]%11CC[C@@H](C)[C@@](O)(O%11)C(=O)C(=O)N%11CCCC[C@H]%11C(=O)O[C@H]([C@H](C)C[C@@H]%11CC[C@@H](O)[C@H](OC)C%11)C[C@@H](O)[C@H](C)/C=C(\C)[C@@H](O)[C@H]%10OC)cn9)CC8)CC7)nc5)C6)CC3)c(C(F)(F)F)c2)c(=O)n4C)cn1` [Example 33], the IC50 in the assay with P-4E-BP1 (T37/46) was > 1000 nM; in the assay with P-Akt (S473), > 1000 nM; with P-P70S6K (T389), 10 to 1000 nM.

`CO[C@H]1C[C@@H]2CC[C@@H](C)[C@@](O)(O2)C(=O)C(=O)N2CCCC[C@H]2C(=O)O[C@H]([C@H](C)C[C@@H]2CC[C@@H](O)[C@H](OC)C2)C[C@@H](O)[C@H](C)/C=C(\C)[C@@H](O)[C@@H](OC)C(=NOc2cccc(C(=O)NCc3cnc(N4CCN(C(=O)CCOCCN5CCN(c6ncc(C(=O)N7CCc8cc(Cn9nc(-c%10ccc%11oc(N)nc%11c%10)c%10c(N)ncnc%109)ccc8C7)cn6)CC5)CC4)nc3)c2)[C@H](C)C[C@H](C)/C=C/C=C/C=C/1C` [Example 35]: the figures for the IC50 with P-4E-BP1 (T37/46), with P-Akt (S473) and with P-P70S6K (T389) were > 1000 nM, > 1000 nM and 10 to 1000 nM, respectively.

For `CO[C@H]1C[C@@H]2CC[C@@H](C)[C@@](O)(O2)C(=O)C(=O)N2CCCC[C@H]2C(=O)O[C@H]([C@H](C)C[C@@H]2CC[C@@H](O)[C@H](OC)C2)C[C@@H](O)[C@H](C)/C=C(\C)[C@@H](O)[C@@H](OC)C(=NOCC(=O)NCc2cnc(N3CCN(C(=O)CCOCCN4CCN(C(=O)CN(C)CC(=O)N5CCc6cc(Cn7nc(-c8ccc9oc(N)nc9c8)c8c(N)ncnc87)ccc6C5)CC4)CC3)nc2)[C@H](C)C[C@H](C)/C=C/C=C/C=C/1C` [Example 36], the IC50 in the assay on P-4E-BP1 (T37/46) was 31.6 to 1000 nM; with P-Akt (S473), > 1000 nM; with P-P70S6K (T389) it was 1 to 10 nM.

As to `CO[C@H]1C[C@@H]2CC[C@@H](C)[C@@](O)(O2)C(=O)C(=O)N2CCCC[C@H]2C(=O)O[C@H]([C@H](C)C[C@@H]2CC[C@@H](O)[C@H](OC)C2)C[C@@H](O)[C@H](C)/C=C(\C)[C@@H](O)[C@@H](OC)C(=NOCC(=O)NCc2cnc(N3CCN(C(=O)CCCN4CCN(c5ncc(C(=O)NCCCCn6nc(-c7ccc8oc(N)nc8c7)c7c(N)ncnc76)cn5)CC4)CC3)nc2)[C@H](C)C[C@H](C)/C=C/C=C/C=C/1C` [Example 37], the IC50 with P-4E-BP1 (T37/46) was 3.16 to 31.6 nM; with P-Akt (S473), 3.16 to 31.6 nM; in the assay with P-P70S6K (T389), < 1 nM.

Turning to `CO[C@H]1C[C@@H]2CC[C@@H](C)[C@@](O)(O2)C(=O)C(=O)N2CCCC[C@H]2C(=O)O[C@H]([C@H](C)C[C@@H]2CC[C@@H](O)[C@H](OC)C2)C[C@@H](O)[C@H](C)/C=C(\C)[C@@H](O)[C@@H](OC)C(=NOCC(=O)NCc2cnc(N3CCN(C(=O)CCOCCN4CCN(c5ncc(C(=O)NCCOCCC(=O)N6CCc7cc(Cn8nc(-c9ccc%10oc(N)nc%10c9)c9c(N)ncnc98)ccc7C6)cn5)CC4)CC3)nc2)[C@H](C)C[C@H](C)/C=C/C=C/C=C/1C` [Example 39], the IC50 in the assay on P-4E-BP1 (T37/46) is 3.16 to 31.6 nM; with P-Akt (S473), > 1000 nM; in the assay on P-P70S6K (T389) it was 1 to 10 nM.

As to `CO[C@H]1C[C@@H]2CC[C@@H](C)[C@@](O)(O2)C(=O)C(=O)N2CCCC[C@H]2C(=O)O[C@H]([C@H](C)C[C@@H]2CC[C@@H](O)[C@H](OC)C2)C[C@@H](O)[C@H](C)/C=C(\C)[C@@H](O)[C@@H](OC)C(=NOCC(=O)NCc2cnc(N3CCN(C(=O)CCOCCN4CCN(CCOCCC(=O)N5CCc6cc(Cn7nc(-c8ccc9oc(N)nc9c8)c8c(N)ncnc87)ccc6C5)CC4)CC3)nc2)[C@H](C)C[C@H](C)/C=C/C=C/C=C/1C` [Example 40], the IC50 was 3.16 to 31.6 nM in the assay with P-4E-BP1 (T37/46), > 1000 nM with P-Akt (S473) and 1 to 10 nM with P-P70S6K (T389).

On to `CO[C@H]1C[C@@H]2CC[C@@H](C)[C@@](O)(O2)C(=O)C(=O)N2CCCC[C@H]2C(=O)O[C@H]([C@H](C)C[C@@H]2CC[C@@H](O)[C@H](OC)C2)C[C@@H](O)[C@H](C)/C=C(\C)[C@@H](O)[C@@H](OC)C(=NOCC(=O)NCCOCCC(=O)NCc2cnc(N3CCN(C(=O)CCOCCN4CCN(c5ncc(C(=O)NCCCCn6nc(-c7cnc8[nH]ccc8c7)c7c(N)ncnc76)cn5)CC4)CC3)nc2)[C@H](C)C[C@H](C)/C=C/C=C/C=C/1C` [Example 42], for which the IC50 in the assay with P-4E-BP1 (T37/46) was 3.16 to 31.6 nM; with P-Akt (S473), > 1000 nM; with P-P70S6K (T389) it was 1 to 10 nM.

Regarding `CO[C@H]1C[C@@H]2CC[C@@H](C)[C@@](O)(O2)C(=O)C(=O)N2CCCC[C@H]2C(=O)O[C@H]([C@H](C)C[C@@H]2CC[C@@H](O)[C@H](OC)C2)C[C@@H](O)[C@H](C)/C=C(\C)[C@@H](O)[C@@H](OC)C(=NOCC(=O)NCCOCCC(=O)NCc2cnc(N3CCN(C(=O)CCOCCN4CCN(c5ncc(C(=O)NCCCCn6nc(-c7ccc8oc(N)nc8c7)c7c(N)ncnc76)cn5)CC4)CC3)nc2)[C@H](C)C[C@H](C)/C=C/C=C/C=C/1C` [Example 43], the IC50 in the assay with P-4E-BP1 (T37/46) is 3.16 to 31.6 nM; with P-Akt (S473) it was 31.6 to 1000 nM; in the assay with P-P70S6K (T389) it was < 1 nM.

On to `CO[C@H]1C[C@@H]2CC[C@@H](C)[C@@](O)(O2)C(=O)C(=O)N2CCCC[C@H]2C(=O)O[C@H]([C@H](C)C[C@@H]2CC[C@@H](O)[C@H](OC)C2)C[C@@H](O)[C@H](C)/C=C(\C)[C@@H](O)[C@@H](OC)C(=NOCC(=O)NCCOCCC(=O)NCc2cnc(N3CCN(C(=O)CCOCCN4CCN(c5ncc(C(=O)N6CCc7cc(Cn8nc(-c9ccc%10oc(N)nc%10c9)c9c(N)ncnc98)ccc7C6)cn5)CC4)CC3)nc2)[C@H](C)C[C@H](C)/C=C/C=C/C=C/1C` [Example 44], for which the IC50 was 3.16 to 31.6 nM in the assay with P-4E-BP1 (T37/46), 31.6 to 1000 nM in the assay with P-Akt (S473) and < 1 nM with P-P70S6K (T389).

On to `CO[C@H]1C[C@@H]2CC[C@@H](C)[C@@](O)(O2)C(=O)C(=O)N2CCCC[C@H]2C(=O)O[C@H]([C@H](C)C[C@@H]2CC[C@@H](O)[C@H](OC)C2)C[C@@H](O)[C@H](C)/C=C(\C)[C@@H](O)[C@@H](OC)C(=NOCC(=O)NCCOCCOCCOCCOCCOCCOCCOCCOCCC(=O)NCCS(=O)(=O)c2ccc(C(=O)N3CCOc4ccc(-c5ccc(N)nc5)cc4C3)c(C)c2)[C@H](C)C[C@H](C)/C=C/C=C/C=C/1C` [Example 45], for which the IC50 is 3.16 to 31.6 nM with P-4E-BP1 (T37/46), > 1000 nM in the assay with P-Akt (S473) and 1 to 10 nM with P-P70S6K (T389).

In the case of `CO[C@H]1C[C@@H]2CC[C@@H](C)[C@@](O)(O2)C(=O)C(=O)N2CCCC[C@H]2C(=O)O[C@H]([C@H](C)C[C@@H]2CC[C@@H](O)[C@H](OC)C2)C[C@@H](O)[C@H](C)/C=C(\C)[C@@H](O)[C@@H](OC)C(=NOCC(=O)NCCOCCOCCOCCOCCOCCOCCOCCOCCC(=O)NCCS(=O)(=O)c2ccc(C(=O)N3CCOc4ccc(-c5ccc(N)nc5)cc4C3)c(C)c2F)[C@H](C)C[C@H](C)/C=C/C=C/C=C/1C` [Example 46], the IC50 with P-4E-BP1 (T37/46) is 3.16 to 31.6 nM; with P-Akt (S473), > 1000 nM; in the assay with P-P70S6K (T389) it was 1 to 10 nM.
